In this assay the target is T1, JAK3 (Homo sapiens, UniProt P52333).
T1 construct: endogenous in cells; host or cells: Molt4 (ATCC CRL-1582) and Ramos (ATCC CRL-1596), mixed lysate 1:2
T1 sequence (P52333 1-1124): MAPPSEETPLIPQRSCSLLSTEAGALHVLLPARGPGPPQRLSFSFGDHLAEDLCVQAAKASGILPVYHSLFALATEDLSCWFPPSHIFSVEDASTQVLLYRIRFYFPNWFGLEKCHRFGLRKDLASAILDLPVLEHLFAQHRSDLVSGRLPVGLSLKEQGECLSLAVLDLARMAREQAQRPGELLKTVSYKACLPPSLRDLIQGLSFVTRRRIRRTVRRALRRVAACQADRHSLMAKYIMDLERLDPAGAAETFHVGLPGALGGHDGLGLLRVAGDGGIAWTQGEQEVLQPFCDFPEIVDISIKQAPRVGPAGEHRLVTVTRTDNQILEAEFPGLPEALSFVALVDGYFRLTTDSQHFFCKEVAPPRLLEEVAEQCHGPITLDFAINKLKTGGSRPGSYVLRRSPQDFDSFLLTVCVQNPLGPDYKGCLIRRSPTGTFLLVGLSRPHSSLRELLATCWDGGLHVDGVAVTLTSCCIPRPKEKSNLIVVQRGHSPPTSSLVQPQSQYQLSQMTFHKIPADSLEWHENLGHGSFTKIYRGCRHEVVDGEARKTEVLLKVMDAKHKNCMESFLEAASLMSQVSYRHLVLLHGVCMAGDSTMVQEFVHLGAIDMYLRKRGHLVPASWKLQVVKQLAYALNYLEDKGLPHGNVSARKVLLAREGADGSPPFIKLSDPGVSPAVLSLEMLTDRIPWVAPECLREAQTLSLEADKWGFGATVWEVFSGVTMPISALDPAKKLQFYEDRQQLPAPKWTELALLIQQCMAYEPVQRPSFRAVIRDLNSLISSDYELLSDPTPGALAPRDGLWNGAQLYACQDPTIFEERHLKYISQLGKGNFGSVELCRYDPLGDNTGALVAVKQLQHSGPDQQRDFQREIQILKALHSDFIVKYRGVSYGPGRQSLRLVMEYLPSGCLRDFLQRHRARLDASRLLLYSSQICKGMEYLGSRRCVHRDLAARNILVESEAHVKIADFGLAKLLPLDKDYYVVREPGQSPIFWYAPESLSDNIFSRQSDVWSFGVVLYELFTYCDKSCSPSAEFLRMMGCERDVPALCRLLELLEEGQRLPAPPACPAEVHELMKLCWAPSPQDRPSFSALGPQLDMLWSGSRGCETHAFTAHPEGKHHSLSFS
Put plainly: Kinobeads assay, JAK3. The class given is binding. As to conditions: mixed Molt4/Ramos lysate, read-out: Inhibition values (IC50) JAK3. Here is the method:
The compounds of the present invention as described in the previous examples were tested in a Kinobeads™ assay as described for ZAP-70 (WO-A 2007/137867). Briefly, test compounds (at various concentrations) and the affinity matrix with the immobilized aminopyrido-pyrimidine ligand 24 were added to cell lysate aliquots and allowed to bind to the proteins in the lysate sample. After the incubation time the beads with captured proteins were separated from the lysate. Bound proteins were then eluted and the presence of JAK1, JAK2, JAK3 and TYK2 was detected and quantified using specific antibodies in a dot blot procedure and the Odyssey infrared detection system. Dose response curves for individual kinases were generated and IC50 values calculated. Kinobeads™ assays for ZAP-70 (WO-A 2007/137867) and for kinase selectivity profiling (WO-A 2006/134056) have been previously described.
The affinity matrix was washed two times with 15 mL of lx DP buffer containing 0.2% NP40 (IGEPAL® CA-630, Sigma, #13021) and then resuspended in 1×DP buffer containing 0.2% NP40 (3% beads slurry).
5×DP buffer: 250 mM Tris-HCl pH 7.4, 25% Glycerol, 7.5 mM MgCl2, 750 mM NaCl, 5 mM Na3VO4; filter the 5×DP buffer through a 0.22 μm filter and store in aliquots at −80° C. The 5×DP buffer is diluted with H2O to 1×DP buffer containing 1 mM DTT and 25 mM NaF.
Stock solutions of test compounds were prepared in DMSO. In a 96 well plate […] solution of diluted test compounds at 5 mM in DMSO were prepared. Starting with this solution a 1:3 dilution series (9 steps) was prepared. For control experiments (no test compound) a buffer containing 2% DMSO was used.
Molt4 cells (ATCC catalogue number CRL-1582) and Ramos cells (ATCC catalogue number CRL-1596) were grown in 1 L Spinner flasks (Integra Biosciences, #182101) in suspension in RPMI 1640 medium (Invitrogen, #21875-034) supplemented with 10% Fetal Bovine Serum (Invitrogen) at a density between 0.15×10^6 and 1.2×10^6 cells/mL. Cells were harvested by centrifugation, washed once with 1×PBS buffer (Invitrogen, #14190-094) and cell pellets were frozen in liquid nitrogen and subsequently stored at −80° C. Cells were homogenized in a Potter S homogenizer in lysis buffer: 50 mM Tris-HCl, 0.8% NP40, 5% glycerol, 150 mM NaCl, 1.5 mM MgCl2, 25 mM NaF, 1 mM sodium vanadate, 1 mM DTT, pH 7.5. One complete EDTA-free tablet (protease inhibitor cocktail, Roche Diagnostics, 1873580) per 25 mL buffer was added. The material was dounced 10 times using a mechanized POTTER S, transferred to 50 mL falcon tubes, incubated for 30 minutes on ice and spun down for 10 minutes at 20,000 g at 4° C. (10,000 rpm in Sorvall SLA600, precooled). The supernatant was transferred to an ultracentrifuge (UZ)-polycarbonate tube (Beckmann, 355654) and spun for 1 hour at 100.000 g at 4° C. (33.500 rpm in Ti50.2, precooled). The supernatant was transferred again to a fresh 50 mL falcon tube, the protein concentration was determined by a Bradford assay (BioRad) and samples containing 50 mg of protein per aliquot were prepared. The samples were immediately used for experiments or frozen in liquid nitrogen and stored frozen at −80° C.
Cell lysate (approximately 50 mg protein per plate) was thawed in a water bath at room temperature and then stored on ice. To the thawed cell lysate 1×DP 0.8% NP40 buffer containing protease inhibitors (1 tablet for 25 mL buffer; EDTA-free protease inhibitor cocktail; Roche Diagnostics 1873580) was added in order to reach a final protein concentration of 10 mg/mL total protein. The diluted cell lysate was stored on ice. Mixed Molt4/Ramos lysate was prepared by combining one volume of Molt4 lysate and two volumes of Ramos lysate (ratio 1:2).
To a 96 well filter plate (Multiscreen HTS, BV Filter Plates, Millipore #MSBVN1250) were added per well: 100 μL affinity matrix (3% beads slurry), […], of compound solution, and 50 μL of diluted lysate. […]

By IC50 is commonly meant the concentration that inhibits the measured activity by half. As to `Cn1cc(Nc2ncc(Cl)c(N[C@H](CO)c3ccccc3)n2)cn1` [Compound 4], the IC50 is less than 100 nM.
With `CC[C@@H](Nc1nc(Nc2cnn(C)c2)ncc1Cl)c1ccccc1` [Compound 5] the figure was 100 to 1000 nM; with `Cn1cc(Nc2ncc(C(F)(F)F)c(N[C@H](CO)c3ccccc3)n2)cn1` [Compound 6], less than 100 nM; with `Cn1cc(Nc2ncc(Cl)c(NC(C)(CO)c3ccccc3)n2)cn1` (stereo not drawn) [Compound 7], 100 to 1000 nM.
As to `Cn1cc(Nc2ncc(C(F)(F)F)c(NC(C)(CO)c3ccccc3)n2)cn1` (stereo not drawn) [Compound 8], the 50% inhibitory concentration (IC50) was 100 to 1000 nM.
`OCCn1cc(Nc2ncc(Cl)c(N[C@H](CO)c3ccccc3)n2)cn1` [Compound 9]: the IC50 is less than 100 nM.
With `OCCn1cc(Nc2ncc(F)c(N[C@H](CO)c3ccccc3)n2)cn1` [Compound 10] the figure was less than 100 nM; with `Cn1cc(-c2cccc(C(CO)Nc3nc(Nc4cnn(CCO)c4)ncc3Cl)c2)cn1` (stereo not drawn) [Compound 94], 100 to 1000 nM; with `CCn1cc(Nc2ncc(Cl)c(N[C@H](CO)c3ccccc3OC)n2)cn1` [Compound 95], less than 100 nM.
To `CCn1cc(Nc2ncc(Cl)c(N[C@H](CO)c3cccc(OC)c3)n2)cn1` [Compound 96] belongs less than 100 nM.
With `CCn1cc(Nc2ncc(Cl)c(N[C@H](CO)c3cccnc3)n2)cn1` [Compound 97] the figure was less than 100 nM; with `CNC(=O)Cn1cc(Nc2ncc(Cl)c(N[C@H](CO)c3ccccc3OC)n2)cn1` [Compound 98], less than 100 nM.
Consider `CNC(=O)Cn1cc(Nc2ncc(Cl)c(N[C@H](CO)c3cccc(OC)c3)n2)cn1` [Compound 99], for which the half-maximal inhibitory concentration (IC50) is less than 100 nM.
For `CNC(=O)Cn1cc(Nc2ncc(Cl)c(N[C@H](CO)c3ccccc3F)n2)cn1` [Compound 100], the half-inhibitory concentration (IC50) was less than 100 nM.
Take `COc1ccccc1[C@@H](CO)Nc1nc(Nc2cnn(CC(=O)N3CCOCC3)c2)ncc1Cl` [Compound 101]: the IC50 was less than 100 nM.
To `COc1cccc([C@@H](CO)Nc2nc(Nc3cnn(CC(=O)N4CCOCC4)c3)ncc2Cl)c1` [Compound 102] belongs less than 100 nM.
To `O=C(Cn1cc(Nc2ncc(Cl)c(N[C@H](CO)c3ccccc3F)n2)cn1)N1CCOCC1` [Compound 103] belongs less than 100 nM; to `O=C(Cn1cc(Nc2ncc(Cl)c(N[C@H](CO)c3cccnc3)n2)cn1)N1CCOCC1` [Compound 104], less than 100 nM.
With `COc1ccccc1[C@@H](CO)Nc1nc(Nc2cnn(C(C)C)c2)ncc1Cl` [Compound 105] the figure was less than 100 nM; with `COc1cccc([C@@H](CO)Nc2nc(Nc3cnn(C(C)C)c3)ncc2Cl)c1` [Compound 106], 100 to 1000 nM.
`CC(C)n1cc(Nc2ncc(Cl)c(N[C@H](CO)c3cccnc3)n2)cn1` [Compound 107]: the IC50 is less than 100 nM.
Consider `NC(=O)Cn1cc(Nc2ncc(F)c(N[C@H](CO)c3ccccc3)n2)cn1` [Compound 108], for which the IC50 is 100 to 1000 nM.
For `CCn1cc(Nc2ncc(Cl)c(N[C@H](CO)c3ccccc3F)n2)cn1` [Compound 109], the IC50 is less than 100 nM.
To `CC(C)n1cc(Nc2ncc(Cl)c(N[C@H](CO)c3ccccc3F)n2)cn1` [Compound 110] belongs less than 100 nM.
To `CNC(=O)Cn1cc(Nc2ncc(F)c(N[C@H](CO)c3ccccc3)n2)cn1` [Compound 111] belongs less than 100 nM.
Regarding `O=C(Cn1cc(Nc2ncc(F)c(N[C@H](CO)c3ccccc3)n2)cn1)N1CCOCC1` [Compound 112], the IC50 is less than 100 nM.
With `NCCCn1cc(Nc2ncc(Cl)c(N[C@H](CO)c3ccccc3)n2)cn1` [Compound 113] the figure was less than 100 nM; with `CC(C)OCCn1cc(Nc2ncc(Cl)c(N[C@H](CO)c3ccccc3)n2)cn1` [Compound 114], less than 100 nM; with `CC(C)NC(=O)Cn1cc(Nc2ncc(Cl)c(N[C@H](CO)c3ccccc3F)n2)cn1` [Compound 115], less than 100 nM.
With `C[C@@H](CO)NC(=O)Cn1cc(Nc2ncc(Cl)c(N[C@H](CO)c3ccccc3F)n2)cn1` [Compound 116] the figure was less than 100 nM.

(Values after US20140179664A1, “Heterocyclyl Pyrimidine Analogues As JAK Inhibitors” (Cellzome Limited, priority 2011, published 2014).)
